According to patent US10227349B2, “Pyrazolo[1,5-a]pyrimidine compound” (Eisai R&D Management Co., Ltd., priority 2016, dated 2019):

Columns and labels:
Type in all cases: in vivo
[1] = tested on: DNFB-induced dermatitis in BALB/c male mice; experiment: Mouse dermatitis model (DNFB-induced auricle swelling); conditions: 0.3 mg/mL solution 10 mL/kg orally 8 hours after DNFB induction, auricle thickness on following day
Procedure: The test compound was added to a 0.5% carboxymethyl cellulose solution so as to have the final concentration of 0.3 mg/mL, thereby preparing an administration solution containing the test compound. Hapten used was 2,4-dinitrofluorobenzene (DNFB, Wako Pure Chemical Industries).
Twenty-five (25) μL of a solution of DNFB diluted to 0.4% with a mixed solvent of acetone and an olive oil in a volume ratio of 2:1 was applied twice to the shaved abdominal region of BALB/c male mice (Charles River), 6-10 weeks of age, over a period of 2 days to create the sensitization. Four days after the sensitization, on the first day, 20 μL of a solution of DNFB diluted to 0.2% with a mixed solvent of acetone and an olive oil in a volume ratio of 2:1 was applied to the right auricle of the mouse to induce dermatitis. Eight hours after the induction of dermatitis, the administration solution containing the test compound (10 mL/kg) was orally administered to the mouse. On the day following the induction of dermatitis, the right auricle thickness of the mouse was measured using a thickness gauge to evaluate the action of the test compound.
Note that Reference Example 1 in Table 5 is Compound (XIX).

[2] = tested on: tape stripping-induced skin barrier disruption in Hos: HR-1 mice; experiment: Mouse model of skin barrier disruption induced by tape stripping (TEWL); conditions: TEWL 0 and 1 hour after stripping, average ± standard deviation, n=10
Procedure: The effect of the test compounds on the skin barrier functions was evaluated using a model with skin barrier disruption induced by tape stripping. Trans-epidermal water loss (TEWL) is an evaluation indicator of the skin barrier functions (Journal of Investigative Dermatology, 126, p 2074-2086 (2006)).
Seven-week old male Hos: HR-1 mice (Hoshino Laboratory Animals, Inc.) were subjected to the test (n=10 for each treatment). For oral administration, solutions of test compounds with different concentrations were prepared as follows. […]
(2) The solution of the test compound prepared in (1) was diluted with a 0.5% methylcellulose solution to prepare a solution of the test compound so that the concentration of the test compound was 0.3 mg/mL. TEWL was measured before the test compound was administered (termed as TEWL [pre]). After the TEWL [pre] was measured, the solution of the test compound adjusted as in (1) or (2) was administered orally (dose: 10 mL/kg). […] TEWL immediately after and 1 hour after the tape stripping were measured (termed as TEWL [0 hour], TEWL [1 hour], respectively), % Barrier recovery was calculated in accordance with the following formula. % Barrier Recovery={(TEWL [0 hour]−TEWL [1 hour])/(TEWL [0 hour]−TEWL [pre])}*100
The result was expressed as the average ± standard deviation of the % barrier recovery. […]

[3] = tested on: OXA-induced enteritis in BALB/c male mice; experiment: Model mouse for enteritis (OXA-induced, bowel length); conditions: po, 48 h, 0.1 mg/mL solution 10 mL/kg orally twice (1 hour before and day after OXA induction), length of colon and rectum two days after induction, read-out: Inhibitory activity on bowel shortening (%)
Procedure: Generally, the bowel length is known to be shorter during enteritis (Maxwell, J. R. et al. Curr. Protoc. Pharmacol. Chapter 5: Unit 5.58, 2009). The bowel length in an enteritis model was measured to evaluate the effect of the test compound.
The test compound was added to a 0.5% carboxymethyl cellulose solution so as to have a final concentration of 0.1 mg/mL, thereby preparing an administration solution containing the test compound. Hapten used was 4-ethoxymethylene-2-phenyloxazol-5-one (OXA, SIGMA-ALDRICH).
One hundred (100) μL of a solution of OXA diluted to 0.3% with ethanol was applied to the shaved abdominal region of BALB/c male mice (Charles River), 6-10 weeks of age, to create the sensitization. Five days after the sensitization, OXA was intrarectally administered to induce an enteritis reaction. More specifically, a syringe equipped with a sonde for oral administration was inserted into the anus of the mouse anesthetized by the inhalation of isoflurane at a concentration of 4-5% and 50 μL of the OXA solution adjusted to 1% with a solvent of 50% ethanol/50% distilled water was administered into the rectum.
One hour before and on the day following the induction of enteritis, the administration solution containing the test compound (10 mL/kg) was orally administered twice in total to the mice. Two days after the induction of enteritis, the mice were euthanized by cervical dislocation and subsequently the cecum to the anus was collected to measure the combined length of the colon and the rectum using a ruler, thereby evaluating the action of the test compound.
Note that Reference Example 1 in Table 6 is Compound (XIX).

Row | SMILES | Inhibitory activity on auricle swelling (%) [1] [%] | % Barrier recovery ([2]; 3 mg/kg orally 1 hour before tape stripping) [%] | % Barrier recovery ([2]; 10 mg/kg orally 1 hour before tape stripping, p < 0.05 versus Vehicle) [%] | inhibition in vivo at 100 µg/mL, 1 mg/kg [3] [%]
1 | CO[C@H]1CN(C(=O)c2cc3nc(-c4cc(F)c(Cl)c(F)c4)cc(N(C)c4c(C)cccc4F)n3n2)CC[C@H]1CC(=O)O [Example 10, 2-((3R,4S)-1-(5-(4-chloro-3,5-difluorophenyl)-7-((2-fluoro-6-methylphenyl)(methyl)amino)pyrazolo[1,5-a]pyrimidine-2-carbonyl)-3-methoxypiperidin-4-yl)acetic acid] | 52.9 | 24.2 ± 8.1 | 53.5 ± 4.9 | –
2 | C[C@@H](c1ccccc1)N(C)c1cc(-c2cc(F)c(F)c(F)c2)nc2cc(C(=O)N3CCC(CC(=O)O)CC3)nn12 [Reference Example 1, (S)-2-(1-(7-(methyl(1-phenylethyl)amino)-5-(3,4,5-trifluorophenyl)pyrazolo[1,5-a]pyrimidine-2-carbonyl)piperidin-4-yl)acetic acid, reference compound] | 22.3 | – | – | 37.3
